This note sets out measurements from ChEMBL document CHEMBL1148056, “Four new dimeric peptide alkaloids, anchinopeptolides B-D, and cycloanchinopeptolide C, congeners of anchinopeptolide A, from the Mediterranean marine sponge Anchinoe tenacior” (J Nat Prod, 1994).

For one assay, the species on record is Rattus norvegicus. Briefly: Displacement of [125I]somatostatin from rat somatostatin receptor at 5 ug/ml.
In turn, `C[C@H](NC(=O)[C@@]1(O)[C@H](CCNC(=N)N)[C@@](O)(CCCNC(=N)N)C(=O)N1CC(=O)N/C=C/c1ccc(O)cc1)C(=O)N/C=C/c1ccc(O)cc1` displayed an Activity of 62%.
On the same count and under the same terms, for `C[C@H](NC(=O)[C@@]1(O)[C@H](CCNC(=N)N)[C@@](O)(CCCNC(=N)N)C(=O)N1[C@@H](C)C(=O)N/C=C/c1ccc(O)cc1)C(=O)N/C=C/c1ccc(O)cc1` the value was 35%; for `N=C(N)NCCC[C@@]1(O)C(=O)N(CC(=O)N/C=C/c2ccc(O)cc2)[C@@](O)(C(=O)NCC(=O)N/C=C/c2ccc(O)cc2)[C@@H]1CCNC(=N)N`, 77%.

The next assay is filed under the species Rattus norvegicus. The experiment in a line: Displacement of [3H]NPY from rat neuropeptide Y receptor at 5 ug/ml. A general note: In a radioligand displacement assay an active substance lowers the binding of a labelled ligand.
`C[C@H](NC(=O)[C@@]1(O)[C@H](CCNC(=N)N)[C@@](O)(CCCNC(=N)N)C(=O)N1CC(=O)N/C=C/c1ccc(O)cc1)C(=O)N/C=C/c1ccc(O)cc1`: the Activity was 57%.
Same read-out and setting: for `C[C@H](NC(=O)[C@@]1(O)[C@H](CCNC(=N)N)[C@@](O)(CCCNC(=N)N)C(=O)N1[C@@H](C)C(=O)N/C=C/c1ccc(O)cc1)C(=O)N/C=C/c1ccc(O)cc1` the value was 35%.
The same measure, in the same setting: to `C[C@@H](C(=O)N/C=C/c1ccc(O)cc1)N1C(=O)[C@](O)(CCCNC(=N)N)[C@@H](CCNC(=N)N)[C@]1(O)C(=O)NCC(=O)N/C=C/c1ccc(O)cc1` belongs 80%.

The target in another assay is B2 bradykinin receptor (Homo sapiens) (UniProt P30411). Briefly: Displacement of [3H]bradykinin from human B2 bradykinin receptor expressed in SF21 cells at 5 ug/ml.
Chain of B2 bradykinin receptor (Homo sapiens) (P30411 whole entry, looked up): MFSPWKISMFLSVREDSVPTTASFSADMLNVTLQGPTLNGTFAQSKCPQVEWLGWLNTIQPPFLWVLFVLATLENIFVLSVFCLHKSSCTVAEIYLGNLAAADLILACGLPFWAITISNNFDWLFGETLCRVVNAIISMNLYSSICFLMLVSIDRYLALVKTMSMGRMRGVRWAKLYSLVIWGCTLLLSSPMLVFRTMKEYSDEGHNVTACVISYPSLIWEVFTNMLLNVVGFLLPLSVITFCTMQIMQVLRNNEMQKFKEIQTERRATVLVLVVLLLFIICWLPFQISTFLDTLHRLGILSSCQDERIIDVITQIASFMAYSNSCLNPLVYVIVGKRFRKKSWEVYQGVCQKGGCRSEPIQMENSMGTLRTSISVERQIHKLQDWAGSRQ
With `C[C@H](NC(=O)[C@@]1(O)[C@H](CCNC(=N)N)[C@@](O)(CCCNC(=N)N)C(=O)N1CC(=O)N/C=C/c1ccc(O)cc1)C(=O)N/C=C/c1ccc(O)cc1`, the Activity worked out at 52%.
Same read-out and setting: to `C[C@H](NC(=O)[C@@]1(O)[C@H](CCNC(=N)N)[C@@](O)(CCCNC(=N)N)C(=O)N1[C@@H](C)C(=O)N/C=C/c1ccc(O)cc1)C(=O)N/C=C/c1ccc(O)cc1` belongs 35%; to `C[C@@H](C(=O)N/C=C/c1ccc(O)cc1)N1C(=O)[C@](O)(CCCNC(=N)N)[C@@H](CCNC(=N)N)[C@]1(O)C(=O)NCC(=O)N/C=C/c1ccc(O)cc1`, 71%.
